From patent US7569661B2, “Polypeptide scaffolds and use thereof” (Modpro AB, priority 2002, dated 2009)
No end group written: not given here. *: point of attachment. Dansyl = CN(C)c1cccc2c(S(=O)(=O)*)cccc12

What was measured:
[1] = target: T1, human carbonic anhydrase II, HCAII (Homo sapiens, UniProt P00918); assay: Surface plasmon resonance-based steady state affinity, immobilized HCAII; settings: 1:1 binding model, peptide 40 nM to 10 μM
Method: [Taylor, P. W.; King, R. W.; Burgen, A. S. V. Biochemistry 1970, 9, 2638-2645] […] Lond. B 1976, 193, 107-125]. […] 1.4 equivalents of Id were allowed to react with 1 equivalent of KE2-P or KE3-P in 50 mM Tris-HCl buffer at pH 8.0 and room temperature.

[2] = target: T1, human carbonic anhydrase II, HCAII; assay: Fluorescence emission spectra of dansyl-labelled peptides in absence and presence of HCAII; type: binding; settings: 1 μM peptide, 50 μM HCAII, 10 mM HBS buffer pH 7.4, 298 K, excitation 335 nm
Method: Dotted lines represent spectra in the absence of HCAII, solid lines represent spectra where 50 μM HCAII has been added.
Spectra were recorded of 1 μM peptide solutions in 10 mM HBS buffer at pH 7.4 and 298 K, in the absence and presence of 50 μM HCAII, with 1 μM solutions of KE2-P and KE3-P as negative controls, FIG. 2.

Row | Kd [1] [µM] | increase of fluorescence intensity upon addition of HCAII [2] | Compound
1 | 0.044 | – | NS(=O)(=O)c1ccc(C(=O)NCCCCCC(=O)O)cc1 [Ic]
2 | – | not affected | KE3-P: KE3 with dansyl fluorescent probe at the side chain of Lys15; control without ligand (NAADLEAKIRHLAEK(Dansyl)LAARGPCDAAQLAEQLARRFEAFARAG)
